What all share (test): biochemical
Common to all, as to set-up: DiscoveRx KINOMEscan active site-directed competition binding; percent of control kinase bound to immobilised ligand

The target in test [1] is PLK1 (Homo sapiens, UniProt P53350).
The target in test [2] is T1, CAMK1B (Homo sapiens, UniProt Q6P2M8).
T1 construct: gene PNCK

The target in test [3] is T2, DCAMKL2 (Homo sapiens, UniProt Q8N568).
T2 construct: gene DCLK2
T2 sequence (Q8N568 1-766): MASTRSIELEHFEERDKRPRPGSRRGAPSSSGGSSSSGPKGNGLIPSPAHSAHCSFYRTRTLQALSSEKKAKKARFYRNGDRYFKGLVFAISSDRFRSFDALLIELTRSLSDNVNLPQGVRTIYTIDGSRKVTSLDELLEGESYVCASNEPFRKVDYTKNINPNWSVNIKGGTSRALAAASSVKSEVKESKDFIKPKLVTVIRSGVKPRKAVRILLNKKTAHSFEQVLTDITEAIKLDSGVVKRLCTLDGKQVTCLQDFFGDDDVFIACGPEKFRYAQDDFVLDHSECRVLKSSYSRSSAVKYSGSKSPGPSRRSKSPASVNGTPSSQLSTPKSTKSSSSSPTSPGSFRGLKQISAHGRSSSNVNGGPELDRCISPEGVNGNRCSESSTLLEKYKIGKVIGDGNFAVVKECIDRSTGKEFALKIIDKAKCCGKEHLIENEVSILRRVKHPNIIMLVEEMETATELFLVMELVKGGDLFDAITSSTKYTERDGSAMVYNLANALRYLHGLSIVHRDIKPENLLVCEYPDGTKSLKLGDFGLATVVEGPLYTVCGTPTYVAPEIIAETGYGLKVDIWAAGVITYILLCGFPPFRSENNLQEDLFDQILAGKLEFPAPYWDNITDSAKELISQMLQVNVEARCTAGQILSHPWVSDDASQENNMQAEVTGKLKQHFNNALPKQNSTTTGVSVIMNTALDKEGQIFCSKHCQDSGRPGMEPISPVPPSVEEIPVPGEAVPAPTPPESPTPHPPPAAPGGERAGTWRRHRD

In test [4] the target is T3, NLK (Homo sapiens, UniProt Q9UBE8).
T3 sequence (Q9UBE8 1-527): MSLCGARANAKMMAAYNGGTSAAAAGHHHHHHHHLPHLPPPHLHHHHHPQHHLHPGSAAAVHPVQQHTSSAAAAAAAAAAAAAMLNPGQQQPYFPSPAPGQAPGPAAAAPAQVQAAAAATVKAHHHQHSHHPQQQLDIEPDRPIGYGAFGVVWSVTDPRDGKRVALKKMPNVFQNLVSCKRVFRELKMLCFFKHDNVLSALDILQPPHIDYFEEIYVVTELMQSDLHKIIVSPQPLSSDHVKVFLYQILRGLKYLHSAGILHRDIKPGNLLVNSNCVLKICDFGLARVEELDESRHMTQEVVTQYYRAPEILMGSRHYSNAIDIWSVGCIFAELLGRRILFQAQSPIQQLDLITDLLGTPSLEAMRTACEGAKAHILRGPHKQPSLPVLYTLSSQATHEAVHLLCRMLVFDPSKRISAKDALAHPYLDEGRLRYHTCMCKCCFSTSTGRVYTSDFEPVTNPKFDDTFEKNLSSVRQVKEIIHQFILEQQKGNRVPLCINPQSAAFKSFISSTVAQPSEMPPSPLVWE

The target in test [5] is T4, TYRO3 (Homo sapiens, UniProt Q06418).
T4 sequence (Q06418 1-890): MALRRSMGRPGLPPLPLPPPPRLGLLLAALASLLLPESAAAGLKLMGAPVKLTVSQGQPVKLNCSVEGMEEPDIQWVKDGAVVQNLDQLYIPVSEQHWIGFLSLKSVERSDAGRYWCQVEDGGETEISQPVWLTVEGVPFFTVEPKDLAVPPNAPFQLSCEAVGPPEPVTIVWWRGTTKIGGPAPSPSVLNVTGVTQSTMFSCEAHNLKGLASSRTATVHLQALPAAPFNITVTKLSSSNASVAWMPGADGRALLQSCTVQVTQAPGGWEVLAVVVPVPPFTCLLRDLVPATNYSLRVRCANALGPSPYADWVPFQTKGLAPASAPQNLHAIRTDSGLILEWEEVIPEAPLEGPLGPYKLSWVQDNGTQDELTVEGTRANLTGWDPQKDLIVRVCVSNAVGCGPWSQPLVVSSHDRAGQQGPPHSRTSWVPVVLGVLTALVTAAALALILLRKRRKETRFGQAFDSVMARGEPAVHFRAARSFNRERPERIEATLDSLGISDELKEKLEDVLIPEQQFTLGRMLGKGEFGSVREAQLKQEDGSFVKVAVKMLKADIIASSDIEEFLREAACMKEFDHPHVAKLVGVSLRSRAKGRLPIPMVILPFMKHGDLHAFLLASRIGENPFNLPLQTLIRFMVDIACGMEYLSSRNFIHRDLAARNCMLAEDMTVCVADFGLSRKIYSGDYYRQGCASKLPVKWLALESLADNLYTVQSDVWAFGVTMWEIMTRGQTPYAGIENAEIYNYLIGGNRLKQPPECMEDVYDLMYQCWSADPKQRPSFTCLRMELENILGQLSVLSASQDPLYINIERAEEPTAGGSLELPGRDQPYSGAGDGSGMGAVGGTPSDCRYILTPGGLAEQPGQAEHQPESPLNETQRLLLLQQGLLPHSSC

Test [6] concerns the target SLK (Homo sapiens, UniProt Q9H2G2).
[7] abbreviates: read-out: Niraparib (MK-4827) / %Ctrl @ 10000nM.
The mark [8] stands for this setting: read-out: Talazoparib (BMN 673) / %Ctrl @ 10000nM.
[9] abbreviates: read-out: Rucaparib / %Ctrl @ 10000nM, binding competition, % of control.
Setting [10] is: read-out: Olaparib / %Ctrl @ 10000nM.

Consider 4 compounds from article PMC7026418, “The kinase polypharmacology landscape of clinical PARP inhibitors” (Scientific Reports, 2020).

SMILES strings stand for the structures. Read-outs that look alike come from different tables or passages of the source.

Sequence of PLK1 (P53350 whole entry): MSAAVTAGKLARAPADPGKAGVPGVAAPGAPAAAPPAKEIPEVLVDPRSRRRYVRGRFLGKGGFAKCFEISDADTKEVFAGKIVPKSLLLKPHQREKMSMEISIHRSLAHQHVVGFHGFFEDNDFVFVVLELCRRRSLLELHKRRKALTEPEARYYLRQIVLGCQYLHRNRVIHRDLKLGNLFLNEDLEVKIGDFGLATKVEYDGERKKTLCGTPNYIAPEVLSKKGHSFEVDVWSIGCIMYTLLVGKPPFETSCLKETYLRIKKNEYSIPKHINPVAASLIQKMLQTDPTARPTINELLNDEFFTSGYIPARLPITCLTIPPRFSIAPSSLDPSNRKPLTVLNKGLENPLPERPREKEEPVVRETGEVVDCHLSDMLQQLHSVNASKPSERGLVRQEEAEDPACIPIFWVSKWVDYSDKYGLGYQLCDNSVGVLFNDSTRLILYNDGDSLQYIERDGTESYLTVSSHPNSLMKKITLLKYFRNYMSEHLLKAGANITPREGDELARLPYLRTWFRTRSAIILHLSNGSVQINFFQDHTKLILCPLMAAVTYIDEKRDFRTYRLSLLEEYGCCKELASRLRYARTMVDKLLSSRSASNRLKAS
T1 sequence (Q6P2M8 whole entry): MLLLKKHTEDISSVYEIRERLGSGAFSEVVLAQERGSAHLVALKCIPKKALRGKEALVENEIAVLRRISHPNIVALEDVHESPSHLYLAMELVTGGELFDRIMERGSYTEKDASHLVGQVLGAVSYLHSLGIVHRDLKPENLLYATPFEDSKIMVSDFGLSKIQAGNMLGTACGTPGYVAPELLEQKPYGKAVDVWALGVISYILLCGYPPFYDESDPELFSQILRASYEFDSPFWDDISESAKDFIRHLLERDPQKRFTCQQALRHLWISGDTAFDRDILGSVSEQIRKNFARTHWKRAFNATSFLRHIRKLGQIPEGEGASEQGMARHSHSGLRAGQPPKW
Sequence of SLK (Q9H2G2 whole entry): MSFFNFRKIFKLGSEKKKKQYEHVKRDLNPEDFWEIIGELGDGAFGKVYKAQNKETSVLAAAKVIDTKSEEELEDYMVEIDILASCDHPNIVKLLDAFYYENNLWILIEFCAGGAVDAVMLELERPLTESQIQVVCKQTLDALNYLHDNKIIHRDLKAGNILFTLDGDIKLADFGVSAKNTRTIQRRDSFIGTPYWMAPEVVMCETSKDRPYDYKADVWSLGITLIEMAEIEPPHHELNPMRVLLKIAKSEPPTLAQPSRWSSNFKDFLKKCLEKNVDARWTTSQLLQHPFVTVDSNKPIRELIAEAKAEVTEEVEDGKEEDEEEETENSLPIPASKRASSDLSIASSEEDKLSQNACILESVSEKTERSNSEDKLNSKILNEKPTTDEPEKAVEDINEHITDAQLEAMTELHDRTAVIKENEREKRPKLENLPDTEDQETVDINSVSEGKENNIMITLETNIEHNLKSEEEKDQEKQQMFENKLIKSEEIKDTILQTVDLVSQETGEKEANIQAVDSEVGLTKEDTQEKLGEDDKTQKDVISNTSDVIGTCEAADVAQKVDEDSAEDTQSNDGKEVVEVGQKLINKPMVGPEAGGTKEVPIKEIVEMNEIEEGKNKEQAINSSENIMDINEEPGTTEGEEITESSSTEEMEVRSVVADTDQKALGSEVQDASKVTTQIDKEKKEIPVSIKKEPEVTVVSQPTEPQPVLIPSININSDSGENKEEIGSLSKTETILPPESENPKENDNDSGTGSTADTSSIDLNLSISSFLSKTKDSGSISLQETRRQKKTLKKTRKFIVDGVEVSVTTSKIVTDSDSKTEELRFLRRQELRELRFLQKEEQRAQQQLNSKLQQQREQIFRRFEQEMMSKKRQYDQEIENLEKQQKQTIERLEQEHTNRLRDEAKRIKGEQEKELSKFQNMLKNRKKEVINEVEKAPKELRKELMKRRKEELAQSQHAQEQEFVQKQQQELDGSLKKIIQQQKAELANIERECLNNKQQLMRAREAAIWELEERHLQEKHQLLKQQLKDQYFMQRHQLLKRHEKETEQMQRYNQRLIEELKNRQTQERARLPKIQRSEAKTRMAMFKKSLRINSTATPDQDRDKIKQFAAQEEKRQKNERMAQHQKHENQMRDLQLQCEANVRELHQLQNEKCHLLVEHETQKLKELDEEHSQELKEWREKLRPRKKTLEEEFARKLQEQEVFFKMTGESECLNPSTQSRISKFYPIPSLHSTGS

With `NC(=O)c1cccc2cn(-c3ccc([C@@H]4CCCNC4)cc3)nc12` [Niraparib], the percent of control binding at 10 µM in test [1] (setting [7]) turned out to be 100%; in test [2] (setting [7]), 94%; in test [3] (setting [7]) it was 83%; in test [4] (setting [7]) it was 100%; in test [5] (setting [7]), 89%; in test [6] (setting [7]), 92%.
Turning to `Cn1ncnc1[C@H]1c2n[nH]c(=O)c3cc(F)cc(c23)N[C@@H]1c1ccc(F)cc1` [Talazoparib], the percent of control binding at 10 µM in test [1] (setting [8]) amounted to 89%; in test [2] (setting [8]), 100%; in test [3] (setting [8]) it was 100%; in test [4] (setting [8]) it was 100%; in test [5] (setting [8]) it was 100%; in test [6] (setting [8]) it was 90%.
For `CNCc1ccc(-c2[nH]c3cc(F)cc4c3c2CCNC4=O)cc1` [Rucaparib], the percent of control binding at 10 µM in test [1] (setting [9]) turned out to be 66%; in test [2] (setting [9]), 100%; in test [3] (setting [9]), 87%; in test [4] (setting [9]) it was 78%; in test [5] (setting [9]), 100%; in test [6] (setting [9]) it was 98%.
`O=C(c1cc(Cc2n[nH]c(=O)c3ccccc23)ccc1F)N1CCN(C(=O)C2CC2)CC1` [Olaparib]: the percent of control binding at 10 µM stood at 85% in test [1] (setting [10]); 97% in test [2] (setting [10]); 100% in test [3] (setting [10]); 85% in test [4] (setting [10]); 100% in test [5] (setting [10]); 100% in test [6] (setting [10]).
